According to BindingDB's records for doi:10.1021/acsmedchemlett.9b00051 (Ajinomoto, 2019):

Assay: Positive allosteric modulator activity at human T1R2/T1R3 expressed in PEAKrapid cells assessed as potentiation of sucrose-induced intracellular calcium influx by measuring sucrose EC50 at 30 uM measured for 120 secs by fluorescence based assay (Rvb = 31.7 mM)

Structure (SMILES) | EC50
CC(=O)NCc1ccc(-c2cncc(C(=O)O)c2N)o1 | 27.1 mM
CC(C)[C@@H](CC(=O)Nc1cncc(C(=O)O)c1N)NC(=O)[C@@H](N)C1CCCCC1 | 18.4 mM
CC(C)CC(=O)NCc1ccc(-c2cncc(C(=O)O)c2N)o1 | 18.3 mM
Cc1nc2ccccc2c(N)c1C(=O)O | 15.9 mM
CC(C)(C)OC(=O)NCc1ccc(-c2cncc(C(=O)O)c2N)o1 | 24.5 mM
CC(C)CNC(=O)NCc1ccc(-c2cncc(C(=O)O)c2N)o1 | 21.6 mM
Nc1c(NC(=O)CCCNC(=O)[C@@H](N)C2CCCCC2)cncc1C(=O)O | 16.2 mM
CC(C)C[C@@H](CC(=O)Nc1cncc(C(=O)O)c1N)NC(=O)[C@@H](N)C1CCCCC1 | 22.7 mM
CC(C)C(=O)NCc1ccc(-c2cncc(C(=O)O)c2N)o1 | 22.1 mM
CC(C)CNC(=O)C(=O)NCc1ccc(-c2cncc(C(=O)O)c2N)o1 | 26.5 mM
Nc1c(NC(=O)CCCCCCNC(=O)[C@@H](N)C2CCCCC2)cncc1C(=O)O | 20.2 mM

The remaining lines, values ahead:

EC50 | Structure (SMILES)
5.8 mM | Nc1c(C(=O)O)cncc1-c1ccc(CNC(=O)[C@@H](N)C2CCCCC2)o1
11.1 mM | CC(C)C[C@H](N)C(=O)NCc1ccc(-c2cncc(C(=O)O)c2N)o1
7.8 mM | Nc1c(NC(=O)CCCCNC(=O)[C@@H](N)C2CCCCC2)cncc1C(=O)O
10.2 mM | C[C@@H](CC(=O)Nc1cncc(C(=O)O)c1N)NC(=O)[C@@H](N)C1CCCCC1
8.9 mM | CC[C@H](C)[C@@H](CCC(=O)Nc1cncc(C(=O)O)c1N)NC(=O)[C@@H](N)C1CCCCC1
10 mM | CC[C@H](C)[C@H](N)C(=O)NCc1ccc(-c2cncc(C(=O)O)c2N)o1
8.5 mM | Nc1c(NC(=O)CC[C@H](Cc2ccccc2)NC(=O)[C@@H](N)C2CCCCC2)cncc1C(=O)O
0.6 mM | Cc1nc2cccc(OCC(C)(C)C(=O)NC(C)C)c2c(N)c1C(=O)O
14.6 mM | CC(C)[C@H](N)C(=O)NCc1ccc(-c2cncc(C(=O)O)c2N)o1
2.2 mM | CC(C)(CC(=O)Nc1cncc(C(=O)O)c1N)NC(=O)[C@@H](N)C1CCCCC1
10.5 mM | CC(C)[C@@H](CCC(=O)Nc1cncc(C(=O)O)c1N)NC(=O)[C@@H](N)C1CCCCC1

Assay: Positive allosteric modulator activity at human T1R2/T1R3 expressed in PEAKrapid cells assessed as potentiation of sucrose-induced intracellular calcium influx by measuring sucrose EC50 at 50 uM measured for 120 secs by fluorescence based assay (Rvb = 31.7 mM)

EC50 | Structure (SMILES)
21.5 mM | Nc1c(C(=O)O)cncc1-c1ccccc1
21 mM | Nc1c(C(=O)O)cncc1-c1cccs1
16.8 mM | Nc1c(C(=O)O)cncc1-c1ccco1
